Results from patent publication US20200397675A1, “METHOD FOR IMPROVING SOLUBILITY OF SPARINGLY WATER-SOLUBLE COMPONENT” (ADEKA CORPORATION, priority 2018, published 2020).

Test: Investigation of solubility of sparingly water-soluble components in Solutions 1 to 9 (0.1 g additions until turbidity)
Conditions: 25° C.
Experimental: In addition, confirmation that turbidity or precipitation had not occurred was carried out by adding 0.1 g of the sparingly water-soluble component at a time, stirring for 10 minutes at 25° C. and then leaving to stand. […] Moreover, further tests were not carried out in cases where the solubility exceeded 5 [g/100 g solution].

## CCCCC(CC)COCC(O)CO (stereo not drawn) [2-ethylhexyl glyceryl ether]
Comparative Example 1, Solution 1 (water 100 g)
  solubility: 0.2 g/100 g solution
Comparative Example 2, Solution 4 (water 90 g, ethanol 10 g)
  solubility: 0.3 g/100 g solution
Comparative Example 3, Solution 5 (water 90 g, propylene glycol 10 g)
  solubility: 0.3 g/100 g solution
Comparative Example 4, Solution 6 (water 90 g, dipropylene glycol 10 g)
  solubility: 0.3 g/100 g solution
Comparative Example 5, Solution 7 (water 90 g, butylene glycol 10 g)
  solubility: 0.2 g/100 g solution
Comparative Example 6, Solution 8 (water 90 g, glycerin 10 g)
  solubility: 0.2 g/100 g solution
Example 1, Solution 2 (water 90 g, Compound (1)-1 10 g)
  solubility: 1.5 g/100 g solution
Example 2, Solution 3 (water 90 g, Compound (1)-2 10 g)
  solubility: 2.3 g/100 g solution
Example 3, Solution 9 (water 80 g, Compound (1)-2 10 g, butylene glycol 10 g)
  solubility: >5 g/100 g solution
